From the supplement of paper PMC10307832

Legend:
Test in all cases: relative viability (nuclei count vs DMSO), 5 days (fraction); higher = more cells survive
Tivantinib + Pemetrexed = compound: O=C1NC(=O)[C@@H](c2cn3c4c(cccc24)CCC3)[C@@H]1c1c[nH]c2ccccc12 [Tivantinib] + Nc1nc2[nH]cc(CCc3ccc(C(=O)N[C@@H](CCC(=O)O)C(=O)O)cc3)c2c(=O)[nH]1 [Pemetrexed] (partner 0.2 µM)
Summary of the method: (§1)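 Five library-drug doses in √10 steps were combined with a fixed anchor-drug dose, or a single drug was given alone, by pin tool to lung cancer cell lines in 1536-well plates the day after seeding. Nuclei were stained and counted after 5 days. Relative viability is the nuclei count in treated wells over that in vehicle wells, taken as the median of duplicate plates.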

Tivantinib + Tozasertib = compound: O=C1NC(=O)[C@@H](c2cn3c4c(cccc24)CCC3)[C@@H]1c1c[nH]c2ccccc12 [Tivantinib] + Cc1cc(Nc2cc(N3CCN(C)CC3)nc(Sc3ccc(NC(=O)C4CC4)cc3)n2)n[nH]1 [Tozasertib] (partner 0.1 µM)
Summary of the method: as §1

Crenolanib + Dasatinib = compound: CC1(COc2ccc3c(c2)ncn3-c2ccc3cccc(N4CCC(N)CC4)c3n2)COC1 [Crenolanib] + Cc1nc(Nc2ncc(C(=O)Nc3c(C)cccc3Cl)s2)cc(N2CCN(CCO)CC2)n1 [Dasatinib] (partner 0.075 µM)
Summary of the method: as §1

Tivantinib + Bortezomib = compound: O=C1NC(=O)[C@@H](c2cn3c4c(cccc24)CCC3)[C@@H]1c1c[nH]c2ccccc12 [Tivantinib] + CC(C)C[C@H](NC(=O)[C@H](Cc1ccccc1)NC(=O)c1cnccn1)B(O)O [Bortezomib] (partner 0.002 µM)
Summary of the method: as §1

Row | Cell Line | relative viability (Tivantinib + Pemetrexed; first compound 0.01 µM) | relative viability (Tivantinib + Pemetrexed; first compound 0.03162 µM) | relative viability (Tivantinib + Pemetrexed; first compound 0.1 µM) | relative viability (Tivantinib + Pemetrexed; first compound 0.3162 µM) | relative viability (Tivantinib + Tozasertib; first compound 0.01 µM) | relative viability (Tivantinib + Tozasertib; first compound 0.03162 µM) | relative viability (Tivantinib + Tozasertib; first compound 0.1 µM) | relative viability (Tivantinib + Tozasertib; first compound 0.3162 µM) | relative viability (Crenolanib + Dasatinib; first compound 0.01 µM) | relative viability (Crenolanib + Dasatinib; first compound 0.03162 µM) | relative viability (Crenolanib + Dasatinib; first compound 0.1 µM) | relative viability (Crenolanib + Dasatinib; first compound 0.3162 µM) | relative viability (Crenolanib + Dasatinib; first compound 1 µM) | relative viability (Tivantinib + Bortezomib; first compound 0.01 µM) | relative viability (Tivantinib + Bortezomib; first compound 0.03162 µM) | relative viability (Tivantinib + Bortezomib; first compound 0.1 µM) | relative viability (Tivantinib + Bortezomib; first compound 0.3162 µM)
1 | LC-2-ad | 0.3 | 0.252 | 0.276 | 0.259 | 0.455 | 0.409 | 0.393 | 0.313 | 0.707 | 0.555 | 0.486 | 0.741 | 0.533 | 1.18 | 0.853 | 0.976 | 1.08
2 | LCLC-97TM1 | 0.148 | 0.165 | 0.157 | 0.191 | 0.25 | 0.218 | 0.25 | 0.218 | 0.877 | 0.883 | 0.857 | 0.949 | 0.67 | 0.742 | 0.734 | 0.517 | 0.764
3 | LCLC-103H | 0.472 | 0.368 | 0.406 | 0.432 | 0.426 | 0.493 | 0.474 | 0.374 | 0.444 | 0.454 | 0.477 | 0.457 | 0.428 | 0.909 | 0.895 | 0.966 | 1.03
4 | LK-2 | 0.261 | 0.286 | 0.276 | 0.244 | 0.177 | – | 0.199 | 0.191 | 0.378 | 0.253 | 0.382 | 0.231 | 0.249 | – | – | – | –
5 | LOU-NH91 | 0.394 | 0.428 | 0.4 | 0.468 | 0.663 | 0.675 | 0.593 | 0.537 | 0.598 | 0.53 | 0.527 | 0.559 | 0.593 | 0.479 | 0.496 | 0.522 | 0.473
6 | LU99A | 0.173 | 0.201 | 0.16 | 0.178 | 0.261 | 0.276 | 0.266 | 0.291 | 0.492 | 0.579 | 0.669 | 0.581 | 0.522 | 1.19 | 0.99 | 1.18 | 1.09
7 | LXF-289 | 0.925 | 0.501 | 0.896 | 0.925 | 0.176 | 0.129 | 0.202 | 0.204 | 0.194 | 0.228 | 0.253 | 0.237 | 0.229 | 1.04 | 1 | 0.922 | 1.04
8 | NCI-H23 | 0.688 | 0.653 | 0.646 | 0.715 | 0.447 | 0.359 | 0.423 | 0.308 | 0.804 | 0.778 | 0.71 | 0.848 | 0.643 | 1.13 | 1.11 | 0.996 | 0.965
9 | NCI-H322M | 0.682 | 0.614 | 0.588 | – | 0.483 | 0.458 | 0.502 | – | 0.241 | 0.258 | 0.255 | 0.251 | 0.303 | 1.17 | 1.15 | 1.22 | 1.06
10 | NCI-H358 | 0.178 | 0.177 | 0.191 | 0.167 | 0.109 | 0.0982 | 0.0902 | 0.0802 | 0.146 | 0.187 | 0.188 | 0.162 | 0.168 | – | – | – | –
11 | NCI-H522 | 1.01 | 1.02 | 0.997 | 0.476 | 0.636 | 0.463 | 0.536 | 0.491 | 0.987 | 1.01 | 0.899 | 0.854 | 0.975 | – | – | – | –
12 | NCI-H727 | – | – | – | – | 0.641 | 0.558 | 0.463 | 0.515 | 0.348 | 0.364 | 0.338 | 0.347 | 0.49 | 0.751 | 0.772 | 0.867 | –
13 | NCI-H1299 | – | – | – | – | – | – | – | – | – | – | – | – | – | 1 | 1 | 1.04 | 1.03
14 | NCI-H1395 | 1.03 | 0.843 | 0.975 | 0.782 | 0.76 | 0.747 | 0.718 | 0.689 | 0.406 | 0.387 | 0.39 | 0.37 | 0.403 | – | – | – | –
15 | NCI-H1563 | 0.558 | 0.703 | 0.715 | 0.624 | – | – | – | – | 0.452 | 0.41 | 0.472 | 0.464 | 0.452 | 0.831 | 0.748 | 0.897 | 0.809
16 | NCI-H1623 | – | – | – | – | 0.388 | 0.424 | 0.441 | – | 0.55 | 0.515 | 0.548 | 0.558 | 0.504 | – | – | – | –
17 | NCI-H1648 | – | 0.67 | 0.722 | 0.486 | 0.71 | 0.385 | 0.425 | – | – | – | – | – | – | – | – | – | –
18 | NCI-H1703 | – | – | – | – | – | – | – | – | – | – | – | – | – | 0.36 | 0.362 | 0.29 | 0.31
19 | NCI-H1792 | 0.965 | – | 0.81 | 0.725 | – | – | – | – | 0.779 | 0.777 | 0.751 | 0.866 | 0.747 | 0.943 | 0.968 | 0.927 | 0.813
20 | NCI-H1793 | 0.83 | 0.885 | 0.832 | 0.669 | 0.427 | 0.329 | 0.353 | 0.222 | 0.365 | 0.412 | 0.4 | 0.404 | 0.418 | – | – | – | –
21 | NCI-H1944 | 0.603 | 0.582 | 0.619 | 0.546 | 0.257 | 0.232 | 0.264 | 0.204 | 0.255 | 0.234 | 0.213 | 0.211 | 0.168 | – | – | – | –
22 | NCI-H2170 | 0.288 | 0.285 | 0.244 | – | 0.771 | 0.619 | 0.749 | – | 0.697 | 0.569 | 0.591 | 0.598 | 0.641 | – | – | – | –
23 | NCI-H2342 | 0.761 | 0.849 | 0.771 | 0.681 | 0.556 | 0.51 | 0.51 | 0.394 | 0.338 | 0.304 | 0.307 | 0.338 | 0.316 | – | – | – | –
24 | SK-MES-1 | 0.95 | 0.913 | 0.816 | 0.783 | 0.903 | 0.904 | 0.824 | 0.862 | 0.39 | 0.448 | 0.358 | 0.409 | 0.358 | – | – | – | –
25 | SW 900 | 0.551 | 0.497 | 0.475 | 0.515 | 0.642 | 0.577 | 0.636 | 0.576 | 0.719 | 0.725 | 0.595 | 0.581 | 0.404 | – | – | – | –
